The test system of this assay is Male Wistar rats. Description: Ischemia reperfusion: LAD occlusion and reperfusion, infarct size as percentage of AAR. The format is in vivo. Particulars: 32 mg/kg i.v. bolus 5 min before ischemia; regional myocardial ischemia 25 min, reperfusion 2 h; P=0.047 unpaired t-test; vehicle infarct size 56±3% of the AAR. On the procedure: Male Wistar rats (200-300 g, Tuck, Rayleigh, Essex, U.K.) were anesthetised with thiopentone sodium (Intraval®, 120 mg/kg i.p.; Rhone-Merrieux, Essex, U.K.). The rats were tracheotomised, intubated and ventilated with a Harvard ventilator (70 strokes/min, tidal volume: 8-10 mL/kg, inspiratory oxygen concentration: 30%). Body temperature was maintained at 38±1° C. The right carotid artery was cannulated and connected to a pressure transducer (MLT 1050, AD Instruments Ltd, Hastings, UK) to monitor mean arterial blood pressure (MAP) and heart rate (HR), which were continuously recorded on a data acquisition system such as Powerlab® Version 4.0.4, AD Instruments, Hastings, UK. The right jugular vein was cannulated for drug administration and the administration of Evans Blue dye (at the end of the experiment). A lateral thoracotomy was performed and the heart was suspended in a temporary pericardial cradle. A snare occluder was placed around the left anterior descending coronary artery (LAD). After completion of the surgical procedure the animals were allowed to stabilise for 30 min before LAD ligation. Five minutes prior to the onset of myocardial ischemia, a bolus injection (i.v.) of either vehicle or phosphonate was administered. The coronary artery was occluded at time 0 by tightening of the occluder. […]

For `Cc1nc(-c2ccccc2)c(C(F)P(=O)(O)O)c(CO)c1O` (stereo not shown) [Compound 38, [Fluoro-(5-hydroxy-4-hydroxymethyl-6-methyl-2-phenyl-pyridin-3-yl)-methyl]-phosphonic acid], the myocardial infarct size result is “reduced myocardial infarct size”.
